# Where a name gives a salt, the structure may show the parent alone.
# Tests used:
# [1] = system: S. pneumoniae strain TIGR4; assay: Streptococcus pneumoniae infection in mice, survival by defined mortality-endpoint; type: in vivo, C57BL/6 mice; conditions: 0.2 mg/kg micronized, intranasal, twice daily for eleven days; infected intranasally with 1×10^7 CFU; compared to vehicle controls; n=60; Mantel-Cox test **p<0.005
# Method: (§1) Germ-free C57BL/6 male and female mice aged 10-12 weeks were intranasally administered with 0.2%Tween-80/saline vehicle or 0.2 mg/kg micronized 6-(1H-indol-4-yl)-4-(5-{[4-(1-methylethyl)-1-piperazinyl]methyl}-1,3-oxazol-2-yl)-1H-indazole hydrochloride in the same vehicle. Compound dosing was carried out twice daily for eleven days under anaesthesia using 3% isoflurane for induction and 2% isoflurane for maintenance. At the start of day two, and one hour after administering 6-(1H-indol-4-yl)-4-(5-{[4-(1-methylethyl)-1-piperazinyl]methyl}-1,3-oxazol-2-yl)-1H-indazole hydrochloride or vehicle, mice were anaesthetized with isoflurane as above and infected intranasally with 1×10^7 CFU of S. pneumoniae strain TIGR4. S. Pneumoniae was obtained and prepared as described previously (see, for example, Infect. Immun. December 2011; 79(12): 4965-4976) and given in an inoculum of 50 μl PBS per mouse. Mice were monitored three times daily and assessed using a defined mortality-endpoint, where mice displaying three or more of the limiting clinical signs stated in Home Office Project Licence PPL 70/7661 were culled.
# lung gene expression = assay: Affymetrix GeneChip lung gene expression in S. Pneumoniae-infected mice; type: in vivo, C57BL/6 mice; conditions: 0.2 mg/kg intranasal twice daily; lungs at various timepoints after S. Pneumoniae-infection; genes significantly altered (minimum 1.5 fold-change; p<0.05) compared to vehicle controls; n=6
# Method: as §1
# Each band corresponds to a single probe and intensity signifies fold change, as indicated in the legend.
compound,measurement,setting,value
"CC(C)N1CCN(Cc2cnc(-c3cc(-c4cccc5[nH]ccc45)cc4[nH]ncc34)o2)CC1 [6-(1H-Indol-4-yl)-4-(5-{[4-(1-methylethyl)-1-piperazinyl]methyl}-1,3-oxazol-2-yl)-1H-indazole hydrochloride]",defined mortality-endpoint (percentage survival),[1],reduced a defined mortality-endpoint
same,lung gene expression,lung gene expression,altered lung gene expression
